Active and inactive are the calls of the source. How the calls were made is not given here.
Target: Bcl-2-related protein A1 (Homo sapiens) (UniProt Q16548)
Test: Bfl-1/Bim complex disruptors – biochemical, multiplexed, bead-based flow cytometry, dose response (AID 1320); on Percent span (inhibition): test concentration not given here
Settings: Bim peptide-Bfl-1 binding, fluorescence

Sequence of Bcl-2-related protein A1 (Homo sapiens) (Q16548 whole entry, looked up): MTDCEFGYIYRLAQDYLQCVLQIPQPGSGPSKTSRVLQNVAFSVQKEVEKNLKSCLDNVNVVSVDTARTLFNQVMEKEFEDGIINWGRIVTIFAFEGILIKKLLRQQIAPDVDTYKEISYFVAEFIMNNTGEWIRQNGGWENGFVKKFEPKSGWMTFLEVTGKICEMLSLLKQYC

EC50, inactive:
CC1CC2=C(NC(=S)NC2c2cccc(F)c2)/C(=C/c2cccc(F)c2)C1 (stereo unspecified)

Same assay, conditions: Bim peptide-Bfl-1 binding, fluorescence

Percent span (inhibition), inactive:
CC1(C)Cc2c(ccc3ccccc23)/C(=C/C(=O)N2CCCCC2)N1, COc1ccc(C)cc1-n1c(=O)c2ccccc2c2ccccc2c1=O, O=c1[nH]c(SCc2nc3ccccc3c(=O)n2-c2ccccc2C(F)(F)F)nc2ccccc12, Cc1ccc(-c2cc(C(=O)N3CCN(c4ncccn4)CC3)c3cc(Br)ccc3n2)o1, Cc1cc(Cl)ccc1N=c1ssnc1Cl

Reference: PubChem BioAssay AID1320 (NMMLSC, 2008)
